Measurements as given in patent publication US8580486B2, “Salt having fluorine-containing carbanion structure, derivative thereof, photoacid generator, resist material using the photoacid generator, and pattern forming method” (Central Glass Company, Limited, priority 2008, dated 2013).
Where a name gives a salt, the structure may show the parent alone.

Tests used:
[1] = Solubility in resist solvent (PGMEA); format: physicochemical; conditions: for Solubility: in propylene glycol monomethyl ether acetate (PGMEA)
[2] = Compatibility of PAG with resist (base resin); conditions: for Compatibility: acid generator (1.0), PGMEA (400)

Row | Compound | Solubility [1] | Compatibility ([2]; Resin 1 (40 parts by wt.)) | Compatibility ([2]; Resin 2 (40 parts by wt.)) | Compatibility ([2]; Resin 3 (40 parts by wt.)) | Compatibility ([2]; Resin 4 (40 parts by wt.)) | Solubility compared with existing PAG (PAG2) having an adamantane skeleton ([1]; in PGMEA, statement in words) | Compatibility ([2]; Resin 5 (40 parts by wt.)) | Compatibility with resists compared with conventional products ([2]; summary of Table 2 and Table 3, in words)
1 | (adamantan-1-ylmethyl)oxycarbonyl difluoromethanesulfonic acid triphenylsulfonium [PAG2, reference compound] | 0.3 parts by weight of PAG dissolved in 100 parts by weight of PGMEA | Good | Good | Good | Good |  |  | 
2 | nonafluorobutanesulfonic acid triphenylsulfonium salt [PAG3, reference compound] |  | Good |  |  |  |  |  | 
3 | CC(CC(S(=O)(=O)C(F)(F)F)S(=O)(=O)C(F)(F)F)OC(=O)C12CC3CC(CC(C3)C1)C2 (centres unmarked) [PAG1, 3-(1-adamantanecarbonyl)oxy 1,1-bis(trifluoromethanesulfonyl)butane triphenylsulfonium salt] | not less than 0.1 parts by weight of PAG dissolved in 100 parts by weight of PGMEA | Good | Good | Good | Good | superior | Good | higher compatibility with resists as compared with conventional products
